From PMC7069944, “Amino acid levels determine metabolism and CYP450 function of hepatocytes and hepatoma cell lines” (Nature Communications, 2020)
Where “and” joins values, the source holds several entries; their conditions need not be identical. Identical values can stand only once.

Experiments:
HLC = assay: Repeated-exposure DILI training compounds, resazurin conversion, HLC; settings: replicates, listed as Triglitazone
Protocol: (§1) To evaluate the ability to predict hepatotoxicity, we adapted the differentiation assays to a 384-well format. […] As a readout, we evaluated cell viability by resazurin conversion and correlated the results to therapeutic doses (Cmax values).
(§2) PSCs were differentiated in a 384-well format. […] As a negative control, 41 wells were left untreated. HepG2 were seeded at 40,000 cells per well. […] Cells were fixed with 4% PFA. […] Drugs were administrated after 8 h of attachment.

HC3X = assay: Repeated-exposure DILI training compounds, resazurin conversion, HC3X; settings: for resazurin conversion (Supplementary Figure 7D): HC3X AAGLY D40, replicates, listed as Triglitazone
Protocol: as §1, §2

HC6X = assay: Repeated-exposure DILI training compounds, resazurin conversion, HC6X; settings: replicates, listed as Triglitazone
Protocol: as §1, §2

HepG2 = assay: Repeated-exposure DILI training compounds, resazurin conversion, HepG2; settings: replicates, listed as Triglitazone
Protocol: as §1, §2

Cc1c(C)c2c(c(C)c1O)CCC(C)(COc1ccc(CC3SC(=O)NC3=O)cc1)O2 (centres unmarked) [troglitazone]
resazurin conversion (Supplementary Figure 7D) (HLC; HLC AAGLY D40, 5 uM): 153.5 and 121.4 and 146 and 101.6 and 123.2 and 125.5 | resazurin conversion (Supplementary Figure 7D) (HLC; HLC AAGLY D40, 10 uM): 135.4 and 92.9 and 151 and 74.5 and 125.5 and 149.7 | resazurin conversion (Supplementary Figure 7D) (HLC; HLC AAGLY D40, 30 uM): 16.5 and 14.5 and 14 and 11.9 and 15.8 and 12.7 | resazurin conversion (Supplementary Figure 7D) (HLC; HLC AAGLY D40, 50 uM): 11.8 (3×) and 11.4 (2×) and 11.7 | resazurin conversion (Supplementary Figure 7D) (HLC; HLC AAGLY D40, 100 uM): 11.9 (2×) and 12.3 and 12.2 and 12.1 (2×) | resazurin conversion (Supplementary Figure 7D) (HLC; HLC AAGLY D40, 300 uM): 12.4 and 12.8 (2×) and 12.6 (2×) and 12.7 | resazurin conversion (Supplementary Figure 7D) (HLC; HLC AAGLY D40, 600 uM): 13.8 (2×) and 13.7 and 13.2 and 13.4 and 13.6 | resazurin conversion (Supplementary Figure 7D) (HLC; HLC AAGLY D40, 1200 uM): 14.9 and 14.8 and 14.3 and 15 and 14.7 and 14.5 | resazurin conversion (Supplementary Figure 7D) (HLC; HLC LDM D40, 3 uM): 124.9 and 86.8 and 81.1 and 83.4 | resazurin conversion (Supplementary Figure 7D) (HLC; HLC LDM D40, 5 uM): 112.5 and 109.2 and 104.5 and 65.4 and 87.8 and 121.6 | resazurin conversion (Supplementary Figure 7D) (HLC; HLC LDM D40, 10 uM): 119.2 and 88.2 and 119.3 and 84.6 and 119 and 129.3 | resazurin conversion (Supplementary Figure 7D) (HLC; HLC LDM D40, 30 uM): 64.9 and 19.9 and 24.5 and 26.5 and 51.6 and 125 | resazurin conversion (Supplementary Figure 7D) (HLC; HLC LDM D40, 50 uM): 9.4 and 9.5 and 9.6 and 12.8 and 134 and 114.9 | resazurin conversion (Supplementary Figure 7D) (HLC; HLC LDM D40, 100 uM): 9.6 and 9.9 and 9.7 and 9.4 and 10.4 and 10.1 | resazurin conversion (Supplementary Figure 7D) (HLC; HLC LDM D40, 300 uM): 10.1 (2×) and 10.3 and 9.6 and 10 and 10.2 | resazurin conversion (Supplementary Figure 7D) (HLC; HLC LDM D40, 600 uM): 10.4 and 10.5 and 10.2 (2×) and 10.8 and 11.3 | resazurin conversion (Supplementary Figure 7D) (HLC; HLC LDM D40, 1200 uM): 11.2 (3×) and 11.3 and 11.1 and 11.5 | resazurin conversion (Supplementary Figure 7D) (HC3X; 3 uM): 100.4 and 118.6 and 117.6 and 139.7 and 113 and 95.6 | resazurin conversion (Supplementary Figure 7D) (HC3X; 5 uM): 108.1 and 113 and 110 and 124 and 122.3 and 125.6 | resazurin conversion (Supplementary Figure 7D) (HC3X; 10 uM): 64.3 and 64.1 and 94.3 and 59.1 and 78.4 and 71.8 | resazurin conversion (Supplementary Figure 7D) (HC3X; 30 uM): 7.7 (3×) and 7.6 (2×) and 7.8 | resazurin conversion (Supplementary Figure 7D) (HC3X; 50 uM): 7.8 (4×) and 7.7 and 7.9 | resazurin conversion (Supplementary Figure 7D) (HC3X; 100 uM): 7.7 and 7.9 (2×) and 8 (2×) and 7.8 | resazurin conversion (Supplementary Figure 7D) (HC3X; 300 uM): 8.6 (2×) and 8.5 and 8.4 and 8.7 and 8.3 | resazurin conversion (Supplementary Figure 7D) (HC3X; 600 uM): 8.6 and 9 and 8.5 and 8.7 and 8.8 and 9.1 | resazurin conversion (Supplementary Figure 7D) (HC3X; 1200 uM): 8.5 and 8.9 and 8.6 (2×) and 8.8 and 9 | IC50/Cmax (HC3X; human): 1.6 | resazurin conversion (Supplementary Figure 7D) (HC6X; HC6X AAGLY D40, 3 uM): 67.6 and 80.5 and 115.9 and 110.8 | resazurin conversion (Supplementary Figure 7D) (HC6X; HC6X AAGLY D40, 5 uM): 97.5 and 124.6 and 75.2 and 88 and 91.2 and 78.9 | resazurin conversion (Supplementary Figure 7D) (HC6X; HC6X AAGLY D40, 10 uM): 28.6 and 26.8 and 51 and 28.8 and 31.8 and 23.3 | resazurin conversion (Supplementary Figure 7D) (HC6X; HC6X AAGLY D40, 30 uM): 17.6 and 19.6 and 21.9 and 19.3 and 17.4 and 18.4 | resazurin conversion (Supplementary Figure 7D) (HC6X; HC6X AAGLY D40, 50 uM): 18.5 and 22.2 and 22.6 and 19.7 and 17.5 and 18.3 | resazurin conversion (Supplementary Figure 7D) (HC6X; HC6X AAGLY D40, 100 uM): 17.7 (2×) and 19.3 and 19.5 and 17.5 and 18.3 | resazurin conversion (Supplementary Figure 7D) (HC6X; HC6X AAGLY D40, 300 uM): 18.9 and 19.1 and 19.4 (2×) and 19.9 and 18.8 | resazurin conversion (Supplementary Figure 7D) (HC6X; HC6X AAGLY D40, 600 uM): 20.5 and 21.3 and 23.4 and 22.4 (2×) and 23.3 | resazurin conversion (Supplementary Figure 7D) (HC6X; HC6X AAGLY D40, 1200 uM): 19.6 and 19.4 and 20.1 and 19.9 and 18.6 and 18.9 | resazurin conversion (Supplementary Figure 7D) (HC6X; HC6X AAGLY D40 Remove dox, 5 uM): 197.5 and 139.5 and 221.6 and 148.2 and 134.8 and 149.8 | resazurin conversion (Supplementary Figure 7D) (HC6X; HC6X AAGLY D40 Remove dox, 10 uM): 133 and 100.2 and 218.5 and 104.9 and 119 and 93.7 | resazurin conversion (Supplementary Figure 7D) (HC6X; HC6X AAGLY D40 Remove dox, 30 uM): 24.4 and 26.5 and 25.9 (2×) and 27.1 and 24.9 | resazurin conversion (Supplementary Figure 7D) (HC6X; HC6X AAGLY D40 Remove dox, 50 uM): 23.5 (2×) and 23.1 and 23.9 and 23.4 and 23.3 | resazurin conversion (Supplementary Figure 7D) (HC6X; HC6X AAGLY D40 Remove dox, 100 uM): 24.4 and 24.5 and 24 and 23.7 and 23.5 and 24.2 | resazurin conversion (Supplementary Figure 7D) (HC6X; HC6X AAGLY D40 Remove dox, 300 uM): 25.6 and 24.8 (2×) and 25 (2×) and 24.6 | resazurin conversion (Supplementary Figure 7D) (HC6X; HC6X AAGLY D40 Remove dox, 600 uM): 26.9 and 26.7 and 26.1 (2×) and 25.7 and 26.3 | resazurin conversion (Supplementary Figure 7D) (HC6X; HC6X AAGLY D40 Remove dox, 1200 uM): 28.5 (2×) and 27.6 and 27.4 and 27.9 and 28.4 | resazurin conversion (Supplementary Figure 7D) (HepG2; HepG2 AAGLY D30, 3 uM): 98.3 and 94.5 and 92 | resazurin conversion (Supplementary Figure 7D) (HepG2; HepG2 AAGLY D30, 5 uM): 68.5 and 110.9 and 79 and 93.8 and 74.1 and 107 | resazurin conversion (Supplementary Figure 7D) (HepG2; HepG2 AAGLY D30, 10 uM): 74 and 89.9 and 83.3 and 84.8 and 74.9 and 104.6 | resazurin conversion (Supplementary Figure 7D) (HepG2; HepG2 AAGLY D30, 30 uM): 79.1 and 100.2 and 93 and 115.8 and 83.4 and 116.8 | resazurin conversion (Supplementary Figure 7D) (HepG2; HepG2 AAGLY D30, 50 uM): 83.1 and 117.7 and 95.2 and 107.4 and 94.4 and 118.1 | resazurin conversion (Supplementary Figure 7D) (HepG2; HepG2 AAGLY D30, 100 uM): 64.7 and 70 and 66.6 and 77.3 and 64.4 and 73.3 | resazurin conversion (Supplementary Figure 7D) (HepG2; HepG2 AAGLY D30, 300 uM): 29.5 and 32.5 and 30.3 and 31.2 and 30.4 and 32 | resazurin conversion (Supplementary Figure 7D) (HepG2; HepG2 AAGLY D30, 600 uM): 29.5 and 33.9 and 30.8 and 32.7 and 30.9 and 34.9 | resazurin conversion (Supplementary Figure 7D) (HepG2; HepG2 AAGLY D30, 1200 uM): 31 and 33.3 and 30.9 and 31.3 and 30.2 and 34.1 | resazurin conversion (Supplementary Figure 7D) (HepG2; HepG2 CTL D7, 3 uM): 96.5 | resazurin conversion (Supplementary Figure 7D) (HepG2; HepG2 CTL D7, 5 uM): 108.7 and 103 and 108 and 101.8 and 110.4 and 108.6 | resazurin conversion (Supplementary Figure 7D) (HepG2; HepG2 CTL D7, 10 uM): 100.5 and 91 and 96 and 94.6 and 100.7 and 102 | resazurin conversion (Supplementary Figure 7D) (HepG2; HepG2 CTL D7, 30 uM): 107.7 and 102.1 and 104.6 and 106.5 and 111.7 and 103.3 | resazurin conversion (Supplementary Figure 7D) (HepG2; HepG2 CTL D7, 50 uM): 106.3 and 99.2 and 103.6 and 101.1 and 106.7 and 102.4 | resazurin conversion (Supplementary Figure 7D) (HepG2; HepG2 CTL D7, 100 uM): 21.4 and 9.6 and 9.2 and 17 and 16.3 and 15.4 | resazurin conversion (Supplementary Figure 7D) (HepG2; HepG2 CTL D7, 300 uM): 8.5 (3×) and 8.1 and 8.3 and 8.2 | resazurin conversion (Supplementary Figure 7D) (HepG2; HepG2 CTL D7, 600 uM): 8.3 and 8 (2×) and 8.4 and 7.9 (2×) | resazurin conversion (Supplementary Figure 7D) (HepG2; HepG2 CTL D7, 1200 uM): 9.4 and 9.5 and 9.7 and 9.2 and 9.3 and 9.1
